Results reported in US9480259B2, “Pyrazolopyrans having herbicidal and pharmaceutical properties” (BASF SE, priority 2012, dated 2016).

Target: Arabidopsis thaliana SHMT
Test: SHMT activity assay (ED50 SHMT), coupled with N5,N10-CH2-THF dehydrogenase, NADH at 340 nm
Type: biochemical
Settings: Table 2, Arabidopsis thaliana SHMT enzyme assay; values given as upper bounds
Summary of the method: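 His-tagged SHMT purified on Ni-NTA. NADH formation followed at 340 nm for 30 min; ED50 from inhibition of initial velocity.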

Row | Structure (SMILES) | EC50 [µM]
1 | COc1ccc(C2(C3(F)CC3)C(C#N)=C(N)Oc3[nH]nc(C)c32)cc1Cl (stereo not shown) [Compound 2.260] | < 0.01
2 | Cc1n[nH]c2c1C(c1cc(Cl)cc(-c3ccco3)c1)(C1CCC1)C(C#N)=C(N)O2 (stereo not shown) [Compound 2.262] | < 0.01
3 | Cc1n[nH]c2c1C(c1cc(Cl)cc(-c3cccs3)c1)(C1CCC1)C(C#N)=C(N)O2 (stereo not shown) [Compound 2.263] | < 0.01
4 | Cc1n[nH]c2c1C(c1cccc(OC(F)F)c1)(C1CCC1)C(C#N)=C(N)O2 (stereo not shown) [Compound 2.264] | < 0.01
5 | Cc1n[nH]c2c1C(c1ccc(F)c(OC(F)(F)F)c1)(C1CCC1)C(C#N)=C(N)O2 (stereo not shown) [Compound 2.265] | < 0.01
6 | Cc1n[nH]c2c1C(c1cc(Cl)cc(OC(F)(F)F)c1)(C1CCC1)C(C#N)=C(N)O2 (stereo not shown) [Compound 2.266] | < 0.01
7 | COc1ccc(C2(C3(F)CC3)C(C#N)=C(N)Oc3[nH]nc(C)c32)cc1C(F)(F)F (stereo not shown) [Compound 2.267] | < 0.01
8 | Cc1n[nH]c2c1C(c1ccc(N3CCCC3)c(Cl)c1)(C1CCC1)C(C#N)=C(N)O2 (stereo not shown) [Compound 2.268] | < 0.01
9 | Cc1n[nH]c2c1C(c1ccc(F)c(C#N)c1)(C1CCC1)C(C#N)=C(N)O2 (stereo not shown) [Compound 2.269] | < 0.01
10 | Cc1n[nH]c2c1C(c1cc(Cl)cc(Cl)c1)(C1CC1(F)F)C(C#N)=C(N)O2 (stereo not shown) [Compound 2.270] | < 0.01
11 | Cc1n[nH]c2c1C(c1cc(N3CCOCC3)cc(C(F)(F)F)c1)(C1CCC1)C(C#N)=C(N)O2 (stereo not shown) [Compound 2.271] | < 0.01
12 | Cc1n[nH]c2c1C(c1ccc(C(F)(F)F)c(C(F)(F)F)c1)(C1CCC1)C(C#N)=C(N)O2 (stereo not shown) [Compound 2.272] | < 0.01
13 | Cc1n[nH]c2c1C(c1cc(Cl)c(Cl)c(C(F)(F)F)c1)(C1CCC1)C(C#N)=C(N)O2 (stereo not shown) [Compound 2.273] | < 0.01
14 | N#CC1=C(N)Oc2[nH]ncc2C1(c1cc(N2CCOCC2)cc(C(F)(F)F)c1)C1CCC1 (stereo not shown) [Compound 2.274] | < 0.01
15 | Cc1n[nH]c2c1C(c1cc(Cl)cc(-c3ccsc3)c1)(C1CC1)C(C#N)=C(N)O2 (stereo not shown) [Compound 2.275] | < 0.01
16 | Cc1n[nH]c2c1C(c1cc(Cl)cc(-c3cccs3)c1)(C1CC1)C(C#N)=C(N)O2 (stereo not shown) [Compound 2.276] | < 1
17 | Cc1n[nH]c2c1C(c1cccc(C(F)F)c1)(C1CCC1)C(C#N)=C(N)O2 (stereo not shown) [Compound 2.277] | < 0.01
18 | Cc1n[nH]c2c1C(c1cccc(OC(F)(F)F)c1)(C1CCC1)C(C#N)=C(N)O2 (stereo not shown) [Compound 2.278] | < 0.01
19 | Cc1n[nH]c2c1C(c1cc(Cl)cc(C(N)=O)c1)(C1CCC1)C(C#N)=C(N)O2 (stereo not shown) [Compound 2.284] | < 0.01
20 | N#CC1=C(N)Oc2[nH]ncc2C1(c1cc(C#N)cc(C#N)c1)C1CCC1 (stereo not shown) [Compound 2.286] | < 0.01
21 | CC(C)C1(c2cc(Br)cc(Br)c2)C(C#N)=C(N)Oc2[nH]ncc21 (stereo not shown) [Compound 2.287] | < 0.01
22 | N#CC1=C(N)Oc2[nH]ncc2C1(c1cc(Cl)cc(Cl)c1)C1(F)CCC1 (stereo not shown) [Compound 2.288] | < 0.1
23 | Cc1n[nH]c2c1C(c1ccc(Cl)c(OC(F)(F)F)c1)(C1CCC1)C(C#N)=C(N)O2 (stereo not shown) [Compound 2.289] | < 0.01
24 | N#CC1=C(N)Oc2[nH]ncc2C1(c1ccc(Cl)c(OC(F)(F)F)c1)C1CCC1 (stereo not shown) [Compound 2.290] | < 0.1
25 | Cc1n[nH]c2c1C(c1cc(Cl)cc(Cl)c1)(C1CC=CC1)C(C#N)=C(N)O2 (stereo not shown) [Compound 2.291] | < 0.01
26 | COc1c(Cl)cc(C2(C3CCC3)C(C#N)=C(N)Oc3[nH]nc(C)c32)cc1Cl (stereo not shown) [Compound 2.292] | < 0.01
27 | COc1c(Cl)cc(C2(C3CCC3)C(C#N)=C(N)Oc3[nH]ncc32)cc1Cl (stereo not shown) [Compound 2.293] | < 0.01
28 | N#CC1=C(N)Oc2[nH]ncc2C1(c1cccc(SC(F)(F)F)c1)C1CCC1 (stereo not shown) [Compound 2.297] | < 0.1

Row | Structure (SMILES) | EC50 [µM]
29 | N#CC1=C(N)Oc2[nH]ncc2C1(c1cc(Cl)cc(I)c1)C1CCC1 (stereo not shown) [Compound 2.298] | < 0.01
30 | Cc1n[nH]c2c1C(c1cc(Cl)cc(I)c1)(C1CCC1)C(C#N)=C(N)O2 (stereo not shown) [Compound 2.299] | < 0.01
31 | Cc1n[nH]c2c1C(c1cc(Br)cc(Br)c1)(C1CC=CC1)C(C#N)=C(N)O2 (stereo not shown) [Compound 2.300] | < 0.01
32 | N#CC1=C(N)Oc2[nH]ncc2C1(c1cc(Br)cc(Br)c1)C1CC=CC1 (stereo not shown) [Compound 2.301] | < 0.1
33 | N#CC1=C(N)Oc2[nH]ncc2C1(c1ccc(C(F)(F)F)c(C(F)(F)F)c1)C1CCC1 (stereo not shown) [Compound 2.302] | < 0.01
34 | Cc1n[nH]c2c1C(c1ccc(OC(F)(F)F)c(Cl)c1)(C1CCC1)C(C#N)=C(N)O2 (stereo not shown) [Compound 2.303] | < 0.01
35 | Cc1n[nH]c2c1C(c1cccc(C(C)(F)F)c1)(C1CCC1)C(C#N)=C(N)O2 (stereo not shown) [Compound 2.305] | < 0.1
36 | Cc1n[nH]c2c1C(c1cc(Br)cc(OC(F)(F)F)c1)(C1CCC1)C(C#N)=C(N)O2 (stereo not shown) [Compound 2.307] | < 0.01
37 | Cc1n[nH]c2c1C(c1cc(I)cc(I)c1)(C1CCC1)C(C#N)=C(N)O2 (stereo not shown) [Compound 2.308] | < 0.01
38 | N#CC1=C(N)Oc2[nH]ncc2C1(c1cc(I)cc(I)c1)C1CCC1 (stereo not shown) [Compound 2.309] | < 0.01
39 | CSc1cccc(C2(C3CCC3)C(C#N)=C(N)Oc3[nH]nc(C)c32)c1 (stereo not shown) [Compound 2.310] | < 0.01
40 | CSc1cccc(C2(C3CCC3)C(C#N)=C(N)Oc3[nH]ncc32)c1 (stereo not shown) [Compound 2.311] | < 1
41 | Cc1n[nH]c2c1C(c1cccc([S+](C)[O-])c1)(C1CCC1)C(C#N)=C(N)O2 (stereo not shown) [Compound 2.312] | < 1
42 | Cc1n[nH]c2c1C(c1cccc(S(C)(=O)=O)c1)(C1CCC1)C(C#N)=C(N)O2 (stereo not shown) [Compound 2.313] | < 1
43 | C#CCCC1(c2cc(Cl)cc(Cl)c2)C(C#N)=C(N)Oc2[nH]nc(C)c21 (stereo not shown) [Compound 2.314] | < 0.1
44 | CC(C)C1(c2cc(Cl)cc(C(F)(F)F)c2)C(C#N)=C(N)Oc2[nH]ncc21 (stereo not shown) [Compound 2.315] | < 0.01
45 | Cc1n[nH]c2c1C(c1cc(Cl)cc(C(F)(F)F)c1)(C(C)C)C(C#N)=C(N)O2 (stereo not shown) [Compound 2.316] | < 0.01
46 | CC(C)C1(c2cc(Cl)cc(Br)c2)C(C#N)=C(N)Oc2[nH]ncc21 (stereo not shown) [Compound 2.317] | < 0.01
47 | Cc1n[nH]c2c1C(c1cc(Cl)cc(-c3ccccn3)c1)(C1CCC1)C(C#N)=C(N)O2 (stereo not shown) [Compound 2.318] | < 0.01
48 | N#CC1=C(N)Oc2[nH]ncc2C1(c1cc(Cl)cc(-c2nccs2)c1)C1CCC1 (stereo not shown) [Compound 2.319] | < 0.01
49 | Cc1n[nH]c2c1C(c1cc(Cl)cc(-c3nccs3)c1)(C1CCC1)C(C#N)=C(N)O2 (stereo not shown) [Compound 2.320] | < 0.01
50 | N#CC1=C(N)Oc2[nH]ncc2C1(c1cc(C#N)cc(C(F)(F)F)c1)C1CCC1 (stereo not shown) [Compound 2.321] | < 0.01
51 | COc1ccc(C2(C(C)C)C(C#N)=C(N)Oc3[nH]ncc32)cc1Br (stereo not shown) [Compound 2.322] | < 0.01
52 | Cc1n[nH]c2c1C(c1cc(C#N)cc(-c3ccccc3)c1)(C1CCC1)C(C#N)=C(N)O2 (stereo not shown) [Compound 2.323] | < 0.1
53 | Cc1n[nH]c2c1C(c1cc(Cl)cc(-c3cccnc3)c1)(C1CCC1)C(C#N)=C(N)O2 (stereo not shown) [Compound 2.324] | < 0.01
54 | Cc1n[nH]c2c1C(c1cc(C#N)cc(-c3cccc(C(F)(F)F)c3)c1)(C1CCC1)C(C#N)=C(N)O2 (stereo not shown) [Compound 2.325] | < 0.01
55 | Cc1n[nH]c2c1C(c1cc(C#N)cc(-c3ccc(C(F)(F)F)cc3)c1)(C1CCC1)C(C#N)=C(N)O2 (stereo not shown) [Compound 2.326] | < 0.01
